# Assay results: patent publication US8912386B2, “Transgenic pig model of cystic fibrosis” (University of Iowa Research Foundation, priority 2007, dated 2014)
# Like-named read-outs stand apart in the source and are kept apart here.
# Key:
# [1] = test system: CFTR^ΔF508/ΔF508 epithelia; test: Short-circuit current (Isc) response to increasing cAMP agonist concentrations, Ussing chambers, ΔF508 epithelia; type: cell-based, pig
# Text: (§1) These studies were done under conditions of maximal CFTR stimulation. Therefore, we also examined the response to increasing concentrations of forskolin and IBMX (at a fixed ratio of forskolin:IBMX of 1:10) (FIG. 33F,G). The EC50 for CFTR^+/+ epithelia was […]. In contrast, the EC50 for forskolin in CFTR^ΔF508/ΔF508 epithelia was 0.60±0.19
# (§2) Because forskolin and IBMX might generate different cellular cAMP concentrations in CFTR^ΔF508/ΔF508 and CFTR^+/+ epithelia, we repeated the experiments with 8-CPT-cAMP, a membrane-permeable cAMP analog (FIG. 33H,I).
# (§3) Epithelial tissues were excised from the nasal turbinate and septum, and from trachea through 2nd generation bronchi immediately after animals were euthanized. Tissues and cultured epithelia were studied in modified Ussing chambers. Epithelia were bathed on both surfaces with solution containing (mM): 135 NaCl, 2.4 K2HPO4, 0.6 KH2PO4, 1.2 CaCl2, 1.2 MgCl2, 10 dextrose, 5 HEPES, pH 7.4, at 37° C. and gassed with compressed air. Na-gluconate was substituted for NaCl in […] solutions. Transepithelial voltage (Vt) was maintained at 0 mV to measure short-circuit current (Isc). Transepithelial electrical conductance (Gt) was measured by intermittently clamping Vt to +5 and/or −5 mV.
# (§4) A standard protocol was the following. 1) Measurements under basal conditions. 2) 100 μM apical amiloride to inhibit ENaC Na^+ channels. […]
# CFTR^+/+ epithelia = test: Short-circuit current (Isc) response to increasing cAMP agonist concentrations, Ussing chambers, wild-type epithelia; type: cell-based, pig
# Text: as §1, §2, §3, §4
# nasal epithelia = test: In vivo nasal transepithelial voltage (Vt) in newborn piglets; parameters: species or system pig; conditions: sequential perfusion, amiloride 100 μM, ATP 100 μM, GlyH-101 100 μM
# Procedure: The transepithelial voltage (Vt) across the nasal epithelium was measured using previously described methods (Zabner et al., J. Clin. Invest. 97:1504, 1996; Standaert et al., Pediatr. Pulmonol. 37:385, 2004) under propofol anesthesia with the animal spontaneously breathing. The reference electrode was a small Ringer's solution-filled catheter inserted into the leg muscle (25 g needle). The exploring electrode was a 6 french foley catheter filled with Ringer's solution (148 mM NaCl, 2.4 mM KH2PO4, 0.4 mM K2PO4, 2.25 mM CaCl2, 1.2 mM MgCl2) inserted 4 cm into the nasal cavity, and the nasal mucosa was perfused at a rate of 5 ml/min using Ringer's solution to obtain baseline Vt. Subsequent perfusion solutions included: Ringer's solution containing 100 μM amiloride; Cl^−-free Ringer's solution containing gluconate substituted for CF plus amiloride; Cl^−-free Ringer's solution containing amiloride plus 10 μM isoproterenol; Cl^−-free Ringer's solution containing amiloride, isoproterenol, plus 100 μM ATP; Cl^−-free Ringer's solution containing amiloride, isoproterenol, ATP, plus 100 μM GlyH-101. Voltage was measured with a voltmeter connected to a strip chart recorder. Each solution was perfused for 3-5 minutes. Following completion of the measurements, the epithelium was disrupted by brushing and Vt measured again to determine the zero value of Vt.
# [2] = test system: excised trachea epithelia; test: Electrophysiology of freshly excised tracheal epithelia in Ussing chambers; type: cell-based, pig; conditions: 100 μM apical
# Text: Values of transepithelial electrical conductance (Gt) were large, probably because of “edge damage” associated with clamping epithelia in Ussing chambers (Helman et al., Am. J. Physiol. Cell Physiol. 225(4):972-977, 1973) (compare with cultured epithelia in FIG. 31, 32).
# as §3
# A standard protocol was the following. 1) Measurements under basal conditions. 2) 100 μM apical amiloride to inhibit ENaC Na^+ channels. 3) 100 μM apical DIDS (4,4-diisothiocyano stilbene-2,2-disulfonic acid) to inhibit most anion channels other than CFTR. 4) 10 μM forskolin and 100 μM IBMX ([…]) to increase cellular levels of cAMP leading to phosphorylation and activation of CFTR. […]
smiles,measurement,setting,value
Nc1ncnc2c1nc(Sc1ccc(Cl)cc1)n2[C@@H]1O[C@@H]2COP(=O)(O)O[C@H]2[C@H]1O [8-CPT-cAMP],EC50,[1]; read-out: EC50 (change in Isc with increasing 8-CPT-cAMP),65.2 ± 17.3 µM
same,EC50,"CFTR^+/+ epithelia; wild-type epithelia, read-out: EC50 (change in Isc with increasing 8-CPT-cAMP)",8 ± 1.3 µM
Nc1ncnc2c1ncn2[C@@H]1O[C@H](COP(=O)(O)OP(=O)(O)OP(=O)(O)O)[C@@H](O)[C@H]1O [ATP],Effect on nasal transepithelial voltage (Vt),nasal epithelia,further hyperpolarized Vt
"N=C(N)NC(=O)c1nc(Cl)c(N)nc1N [Amiloride, amiloride]",Effect on nasal transepithelial voltage (Vt),nasal epithelia,reduced Vt in all genotypes
same,Effect on transepithelial conductance Gt (ΔGtamiloride),[2]; CFTR^ΔF508/ΔF508 vs CFTR^+/+,reduced Gt (ΔGtamiloride) to a similar extent
same,"Effect on Vt and Isc (ΔVtamiloride, ΔIscamiloride)",[2]; CFTR^ΔF508/ΔF508 vs wild-type,reduced Vt (ΔVtamiloride) and Isc (ΔIscamiloride) in CFTR^ΔF508/ΔF508 more than in wild-type epithelia
O=C(CNc1ccc2ccccc2c1)N/N=C/c1cc(Br)c(O)c(Br)c1O [GlyH-101],Effect on nasal transepithelial voltage (Vt),nasal epithelia,"depolarized Vt in controls, but not CFTR−/− piglets"
C=C[C@@]1(C)CC(=O)[C@]2(O)[C@@]3(C)[C@@H](O)CCC(C)(C)[C@@H]3[C@H](O)[C@H](OC(C)=O)[C@@]2(C)O1 [forskolin],EC50,"[1]; Sus scrofa, increasing forskolin and IBMX at fixed ratio forskolin:IBMX 1:10, read-out: EC50 for forskolin (change in Isc)",0.6 ± 0.19 µM
same,EC50,"CFTR^+/+ epithelia; Sus scrofa, CFTR^+/+ epithelia, increasing forskolin and IBMX at fixed ratio forskolin:IBMX 1:10, read-out: EC50 for forskolin (change in Isc)",0.07 ± 0.01 µM
